According to patent US7351294B2, “Surface cleaner” (Reckitt Benckiser (UK) Limited, priority 1999, dated 2008):

Columns and labels:
[1] = Activity test: decolourisation of target dye gentian violet by sensitised TiO2 sol on an overhead projector, followed by UV/Visible spectrum
Method: A mixture of TiO2 sol (1 ml, 1 g/L) and tris(2,2′-dipyridyl4,4′-dicarboxylate)ruthenium(II)(dichloride) (4 ml, c=3.4×10^−5M) was stirred for about 1 minute using a rotamixer. The pH was recorded then the target dye gentian violet (GV dissolved in 20% ethanol solution, 0.05 ml or 0.08 ml, 0.03 wt/v %) was added and the mixture was stirred again. The initial colour of the sensitised TiO2 sol was yellow. Addition of gentian violet produced a purple colour at pH 3 and higher. A UV/Visible spectrum was taken at this stage. The vial containing the mixture was placed onto an overhead projector (2 cm height from the glass, in order to reduce heat). A UV/Visible spectrum was used to observe the colour change over a period of time at lamda max of the Target dye (Gentian violet or crystal violet)=588 nm in the white light spectrum. (OHP used: Model Ensign. Lamp:24V-250 W-3860 lux)
In order to get quantitative data a UV/Visible spectrum was taken at different times. […]

[2] = acid conditions (pH 3); cited from earlier work
[3] = cited from earlier work

Compound	Decolourisation on repeated addition of gentian violet (0.08 ml) ([1]; Example 19, with TiO2 sol (5 ml, 10 g/L), slower rate than on the first addition)	Activity with other light sources versus overhead projector ([1]; with TiO2 sol, daylight bulbs 40 W and 100 W, tungsten filament 35 W and 100 W, fluorescent tube 8 W)	Activity in sensitised photocatalytic oxidation of herbicides [2]	Sensitising agent for charge injection into titania ([3]; acid pH, compared to tris(2,2′-bipridyl)ruthenium (II) dichloride)	Sensitising properties ([3]; pH 7 compared with lower pH)
tris(2,2′-bipyridyl-4,4′-dicarboxylate)ruthenium (II) dichloride	still decolourising on the third addition	still works with all light sources tried albeit much slower	active	superior	–
[Cl-].[Cl-].[Ru+2].c1ccc(-c2ccccn2)nc1.c1ccc(-c2ccccn2)nc1.c1ccc(-c2ccccn2)nc1 [tris(2,2′-bipridyl)ruthenium (II) dichloride, reference compound]	–	–	–	–	improve
